Measured values published in ChEMBL document CHEMBL1681750, “Cofactor-type inhibitors of inosine monophosphate dehydrogenase via modular approach: targeting the pyrophosphate binding sub-domain” (Bioorg Med Chem, 2011).

Key:
[1] = tested on: K562; assay: Antiproliferative activity against human K562 cells after 72 hrs by MTS assay; type: functional, cell-based; settings: K562, 72 h
[2] = molecular target: Inosine-5'-monophosphate dehydrogenase 1 (Homo sapiens, UniProt P20839); assay: Inhibition of human IMPDH1 by Spectrophotometry
Sequence of Inosine-5'-monophosphate dehydrogenase 1 (P20839 whole entry): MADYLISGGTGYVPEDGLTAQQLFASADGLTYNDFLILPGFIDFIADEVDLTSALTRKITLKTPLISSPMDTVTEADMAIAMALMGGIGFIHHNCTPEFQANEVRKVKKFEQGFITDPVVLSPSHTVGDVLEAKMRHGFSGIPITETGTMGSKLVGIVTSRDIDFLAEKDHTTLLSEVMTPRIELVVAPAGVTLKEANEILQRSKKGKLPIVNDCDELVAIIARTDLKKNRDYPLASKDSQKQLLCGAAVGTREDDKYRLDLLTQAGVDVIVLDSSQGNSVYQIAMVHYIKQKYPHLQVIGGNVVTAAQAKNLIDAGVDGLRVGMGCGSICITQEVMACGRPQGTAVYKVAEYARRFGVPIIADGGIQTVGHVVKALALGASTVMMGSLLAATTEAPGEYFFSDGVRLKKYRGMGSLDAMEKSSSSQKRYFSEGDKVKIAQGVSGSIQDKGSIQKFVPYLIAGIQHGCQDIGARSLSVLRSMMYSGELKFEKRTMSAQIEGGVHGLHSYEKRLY

Structure (SMILES)	IC50 [1] [µM]	Ki [2] [µM]
NC(=O)c1csc([C@@H]2O[C@H](COP(=O)(O)CC(=O)NC[C@@H]3O[C@H](n4cnc5c(N)ncnc54)[C@@H](O)[C@H]3O)[C@@H](O)[C@H]2O)n1	> 100	14.2
NC(=O)c1csc([C@@H]2O[C@H](CNS(=O)(=O)CS(=O)(=O)NC[C@@H]3O[C@H](n4cnc5c(N)ncnc54)[C@@H](O)[C@H]3O)[C@@H](O)[C@H]2O)n1	> 100	23.6
CCc1nc(N)c2ncn([C@H]3O[C@@H](COP(=O)(O)OP(=O)(O)OC[C@H]4O[C@@H](c5nc(C(N)=O)cs5)[C@H](O)[C@@H]4O)[C@H](O)[C@@H]3O)c2n1		0.001

Further compounds by falling Ki [2], results first:

IC50 [1] [µM]	Ki [2] [µM]	Structure (SMILES)
> 100	5.55	COc1c(C)c2c(c(O)c1CCOP(=O)(O)CCP(=O)(O)O)C(=O)OC2 [MYCOPHENOLIC ETHYLENEBIS]
4.7	0.013	CCc1nc(N)c2ncn([C@H]3O[C@@H](COP(=O)(O)C(F)(F)P(=O)(O)OC[C@H]4O[C@@H](c5nc(C(N)=O)cs5)[C@H](O)[C@@H]4O)[C@H](O)[C@@H]3O)c2n1
